From US11254640B2, “N-substituted indoles and other heterocycles for treating brain disorders” (The Regents of the University of California, priority 2019, dated 2022)

What was measured:
[1] = test system: 5HT2A sensor; assay: 5HT2A sensor assay, agonist mode (sLight1.3s HEK293T stable line); format: cell-based; conditions: for activation of 5HT2A sensor assay in agonist mode at 10 μM: 10 μM of compound (FIG. 11); for activation of 5HT2A sensor assay in agonist mode (dose response): dose response (FIG. 10)
Outline: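 Agonist mode in HEK293T cells stably expressing the sLight1.3 5HT2A sensor, washed into HBSS; compounds at final 100 μM, 10 μM and 100 nM (0.1% DMSO), triplicate wells. Membrane fluorescence (ex 460, em 512-542 nm) imaged before and after addition; dFF=(Fsat−Fapo)/Fapo, expressed as percent activation (DMSO=0, 5HT=100).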

[2] = test system: cortical neurons; assay: Dendritogenesis assay, Sholl analysis; format: cell-based, rat; conditions: Rattus norvegicus, Cortical neurone; 10 μM; Nmax with vehicle (DMSO) = 0% and ketamine = 100%; read-out: % efficacy in sholls
From the text: Dendritogenesis Assays. Phenotypic screening has historically proven more successful than target-based approaches for identifying drugs with novel mechanisms of action. Having established a simple and robust method for accessing isoDMT analogs, tested next was their ability to increase dendritic arbor complexity in cultures of cortical neurons using a phenotypic assay. Following treatment, neurons were fixed and visualized using an antibody against MAP2—a cytoskeletal protein localized to the somatodendritic compartment of neurons. Sholl analysis was then performed, and the maximum number of crossings (Nmax) was used as a quantitative metric of dendritic arbor complexity. For statistical comparisons between specific compounds, the raw Nmax values were compared. Percent efficacies were determined by setting the Nmax values for the vehicle (DMSO) and positive (ketamine) controls equal to 0% and 100%, respectively.
(§1) Animals. For the dendritogenesis experiments, timed pregnant Sprague Dawley rats were obtained from Charles River Laboratories (Wilmington, Mass.). For the head-twitch response assay, male and female C57BL/6J mice were obtained from Jackson Laboratory (Sacramento, Calif.). Mice were housed in a temperature and humidity-controlled room maintained on a 12-h light/dark cycle in groups of 4-5 (same sex). Animals weighed between 17 and 30 g at the time of the experiments. All experimental procedures involving rodents were approved by the UC Davis Institutional Animal Care and Use Committee (IACUC) and adhered to principles described in the National Institutes of Health Guide for the Care and Use of Laboratory Animals. The University of California, Davis and the University of California, San Francisco are accredited by the Association for Assessment and Accreditation of Laboratory Animal Care International (AAALAC).
Dendritogenesis—Sholl Analysis. Dendritogenesis experiments were performed following a previously published method with slight modifications. Neurons were plated in 96-well format (200 μL of media per well) at a density of approximately 15,000 cells/well in Neurobasal (Life Technologies) containing 1% penicillin-streptomycin, 10% heat-inactivated fetal bovine serum, and 0.5 mM glutamine. After 24 h, the medium was replaced with Neurobasal containing 1× B27 supplement (Life Technologies), 1% penicillin-streptomycin, 0.5 mM glutamine, and 12.5 μM glutamate. After 3 days in vitro (DIV3), the cells were treated with compounds. All compounds tested in the dendritogenesis assays were treated at 10 μM unless noted otherwise. Stock solutions of the compounds in DMSO were first diluted 100-fold in Neurobasal before an additional 10-fold dilution into each well (total dilution=1:1000; 0.1% DMSO concentration). Treatments were randomized. After 1 h, the media was removed and replaced with new Neurobasal media containing 1× B27 supplement, 1% penicillin-streptomycin, 0.5 mM glutamine, and 12.5 μM glutamate. The cells were allowed to grow for an additional 71 h. At that time, neurons were fixed by removing 80% of the media and replacing it with a volume of 4% aqueous paraformaldehyde (Alfa Aesar) equal to 50% of the working volume of the well. Then, the cells were incubated at room temperature for 20 min before the fixative was aspirated and each well washed twice with DPBS. Cells were permeabilized using 0.2% Triton X-100 (ThermoFisher) in DPBS for 20 minutes at room temperature without shaking. Plates were blocked with antibody diluting buffer (ADB) containing 2% bovine serum albumin (BSA) in DPBS for 1 h at room temperature. Then, plates were incubated overnight at 4° C. with gentle shaking in ADB containing a chicken anti-MAP2 antibody (1:10,000; EnCor, CPCA-MAP2). The next day, plates were washed three times with DPBS and once with 2% ADB in DPBS. […]

[3] = test system: cortical neurons; assay: Ketanserin blocking experiments (dendritogenesis); format: cell-based, rat; conditions: ketanserin 10 μM, drug 1 μM (FIG. 7)
Experimental: Ketanserin Blocking Experiments. For the ketaserin blocking experiments (FIG. 7), a slightly modified method was employed. On DIV 3, neurons were first treated with ketanserin (10 μM) for 1 h followed by a 1 h incubation with drug (1 μM) and ketanserin (10 μM) (final concentration of DMSO=0.2%). After 1 h, the media was removed and replaced with new Neurobasal media containing 1× B27 supplement, 1% penicillin-streptomycin, 0.5 mM glutamine, and 12.5 μM glutamate. The cells were allowed to grow for an additional 71 h before being fixed, stained, and imaged.

[4] = test system: C57BL/6J mice; assay: Head twitch response (HTR) assay; format: in vivo, mouse; conditions: intraperitoneal injection, head-twitches over 20 mins (FIG. 8, FIG. 9)
From the text: as §1
Head twitch response experiments. Mice (9-10 weeks old) were injected intraperitoneally with compound (injection volume 5 ml/kg), placed in an empty cage, and filmed for 20 minutes. Cages were cleaned with 70% ethanol between experiments.

[5] = test system: rats; conditions: rats trained to discriminate DOM from saline; cited from earlier work
[6] = test system: 5HT2A sensor; assay: 5HT2A sensor assay, antagonist mode (sLight1.3s HEK293T stable line); format: cell-based; conditions: dose response (FIG. 12A, FIG. 12B)
Outline: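 Inactivation score is computed from membrane dFF as (dFF(compound+5HT)−dFF(5HT))/dFF(5HT), with HBSS-only fluorescence as Fapo. Final concentrations: 5-HT 100 nM added first, then compound at 100 nM, 10 μM or 100 μM in 0.1% DMSO. Triplicates; FITC imaging, 5 fields per well.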

[7] = test system: C57/BL6J mice; assay: Forced swim test (FST); format: in vivo, mouse; conditions: 24 h after drug administration; i.p., compounds 20 mg/kg, ketamine 3 mg/kg
Experimental: Forced Swim Test. As increased cortical structural plasticity in the anterior parts of the brain mediates the sustained (>24 h) antidepressant-like effects of ketamine and play a role in the therapeutic effects of 5-HT2A agonists, the impact of IsoDMT analogs on forced swim test (FST) behavior (FIG. 14A and FIG. 14B) was evaluated. First, a pretest was used to induce a depressive phenotype. Compounds were administered 24 h after the pre-test, and the FST was performed 24 h and 7 d post drug administration.
Forced Swim Test (FST). Male C57/BL6J mice (9-10 weeks old at time of experiment) were obtained from the Jackson Lab and housed 4-5 mice/cage in a UCD vivarium following an IACUC approved protocol. After 1 week in the vivarium each mouse was handled for approximately 1 minute by a experimenter for 3 consecutive days leading up to the first FST. […] Immobility scores for all mice were determined after the pre-test and mice were randomly assigned to treatment groups to generate groups with similar average immobility scores to be used for the following two FST sessions. […] Experiments were video-recorded and manually scored offline. Immobility time—defined as passive floating or remaining motionless with no activity other than that needed to keep the mouse's head above water—was scored for the last 4 min of the 6 min trial.

| SMILES | activation of 5HT2A sensor assay in agonist mode at 10 μM [1] | activation of 5HT2A sensor assay in agonist mode (dose response) [1] | Emax at 10 µM [2] [%] | effect of 5-HT2A antagonist pretreatment on increase in dendritic growth [3] | head-twitch response (hallucinogenic potential) [4] | substitution for hallucinogenic training drug (DOM) in drug discrimination [5] | competition with 5-HT in 5HT2A sensor assay, antagonist mode (dose response) [6] | immobility in forced swim test [7] |
| --- | --- | --- | --- | --- | --- | --- | --- | --- |
| COc1ccc2[nH]cc(CCN(C)C)c2c1 [Example 28, 2-(5-methoxy-1H-indol-3-yl)-N,N-dimethylethan-1-amine, reference compound] | activate the 5HT2A sensor assay in agonist mode | activate | 80 | blocked | robust, dose-dependent HTR | substitutes |  |  |
| COc1ccc2c(CCN(C)C)c[nH]c2c1 [Example 30, 2-(6-methoxy-1H-indol-3-yl)-N,N-dimethylethan-1-amine, reference compound] | do not activate the 5HT2A sensor assay in agonist mode | do not | 72 |  | did not produce a HTR | does not | compete off 5-HT |  |
| CNC1(c2ccccc2Cl)CCCCC1=O (stereo not shown) [ketamine, reference compound] |  |  |  |  |  |  |  | significantly reduced immobility |
